Test results taken from PubChem BioAssay (NCI).
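1) Cells in 96-well plates. 2) Compound, 48 h, 5 concentrations. 3) Linear interpolation between surrounding doses. 4) Unreached endpoint = highest concentration. TGI: total growth inhibition.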

Key:
Test in all cases: NCI tumour cell line growth inhibition, 48 h
A549 NSCLC = system: A549 NSCLC
ACHN renal = system: ACHN renal
CAKI-1 renal = system: CAKI-1 renal
CCRF-CEM leukemia = system: CCRF-CEM leukemia
COLO 205 colon = system: COLO 205 colon
DLD-1 colon = system: DLD-1 colon
DMS 114 small cell lung = system: DMS 114 small cell lung
DMS 273 small cell lung = system: DMS 273 small cell lung
EKVX NSCLC = system: EKVX NSCLC
HCC-2998 colon = system: HCC-2998 colon
HCT-116 colon = system: HCT-116 colon
HCT-15 colon = system: HCT-15 colon
HOP-18 NSCLC = system: HOP-18 NSCLC
HOP-62 NSCLC = system: HOP-62 NSCLC
HOP-92 NSCLC = system: HOP-92 NSCLC
HT29 colon = system: HT29 colon
IGROV1 ovarian = system: IGROV1 ovarian
K-562 leukemia = system: K-562 leukemia
KM20L2 colon = system: KM20L2 colon
LOX IMVI melanoma = system: LOX IMVI melanoma
LXFL 529 NSCLC = system: LXFL 529 NSCLC
M14 melanoma = system: M14 melanoma
M19-MEL melanoma = system: M19-MEL melanoma
MALME-3M melanoma = system: MALME-3M melanoma
MOLT-4 leukemia = system: MOLT-4 leukemia
NCI-H23 lung = system: NCI-H23 lung
NCI-H460 lung = system: NCI-H460 lung
NCI-H522 lung = system: NCI-H522 lung
OVCAR-3 ovarian = system: OVCAR-3 ovarian
OVCAR-4 ovarian = system: OVCAR-4 ovarian
OVCAR-5 ovarian = system: OVCAR-5 ovarian
OVCAR-8 ovarian = system: OVCAR-8 ovarian
RPMI-8226 leukemia = system: RPMI-8226 leukemia
RXF 393 renal = system: RXF 393 renal
RXF-631 renal = system: RXF-631 renal
SF-268 CNS = system: SF-268 CNS
SF-539 CNS = system: SF-539 CNS
SK-MEL-2 melanoma = system: SK-MEL-2 melanoma
SK-MEL-28 melanoma = system: SK-MEL-28 melanoma
SK-MEL-5 melanoma = system: SK-MEL-5 melanoma
SN12C renal = system: SN12C renal
SNB-75 CNS = system: SNB-75 CNS
SNB-78 CNS = system: SNB-78 CNS
SR leukemia = system: SR leukemia
SW-620 colon = system: SW-620 colon
TK-10 renal = system: TK-10 renal
UACC-257 melanoma = system: UACC-257 melanoma
UACC-62 melanoma = system: UACC-62 melanoma
UO-31 renal = system: UO-31 renal
786-0 renal = system: 786-0 renal
HL-60(TB) leukemia = system: HL-60(TB) leukemia
KM12 colon = system: KM12 colon
NCI-H226 lung = system: NCI-H226 lung
SF-295 CNS = system: SF-295 CNS
SK-OV-3 ovarian = system: SK-OV-3 ovarian
SNB-19 CNS = system: SNB-19 CNS
U251 CNS = system: U251 CNS
XF 498 CNS = system: XF 498 CNS

Measured: TGI

CC(=O)OC1(C#N)CC2OC1C1C2N=NN1C(=O)OC(C)(C)C (configuration not stated)
45.9 µM: UACC-62 melanoma
75.3 µM: HOP-92 NSCLC
52.7 µM: SF-539 CNS
55.9 µM: HCT-15 colon
73.2 µM: SNB-78 CNS
48.3 µM: MALME-3M melanoma
81.9 µM: SK-MEL-28 melanoma
68.9 µM: SK-MEL-2 melanoma
28.6 µM: HCT-116 colon
69.4 µM: LOX IMVI melanoma
65.6 µM: DMS 114 small cell lung
73.8 µM: DMS 273 small cell lung
46.6 µM: M14 melanoma
77.7 µM: NCI-H23 lung
not listed: 786-0 renal | HL-60(TB) leukemia | KM12 colon | NCI-H226 lung | SF-295 CNS | SK-OV-3 ovarian | SNB-19 CNS | U251 CNS | XF 498 CNS
> 100 µM: all other assays above

COC(=O)[C@]1(C)CCCC2(C)C1CC[C@H]1C=C(C)[C@H]3CCC12C3 (some centres not stated)
not listed: DMS 273 small cell lung | EKVX NSCLC | HOP-18 NSCLC | M19-MEL melanoma | SK-MEL-2 melanoma
> 100 µM: all other assays above
